Assay results: patent US20040242669A1, “Method of treating deficits associated with brain injury” (priority 2003, published 2004)
Structures can show the parent of a compound that is named as a salt. Marks after values point to notes of the source that are not given here.

Key:
Assay type in all cases: in vivo, rat
[1] = system: kainate-induced epilepsy; assay: Kainate-induced convulsions (epilepsy); conditions: for Latency (s) to the first tonic-clonic seizure / Seizures (total number) / Mortality (%): kainic acid 10 μg/2 μl i.c.v.; for Latency (s) to the first tonic-clonic seizure / Seizures (total number): 30-min observation, mean ± S.E.M.; for Mortality (%): checked 2 h after convulsive agent
Method: (§1) Male rats of the Sprague-Dawley strain (purchased from Charles River, Italy) weighing 280±20 g were used throughout all experiments. The animals were housed two-three to a cage under a constant light-dark cycle (lights on between 8.00 and 20.00) at 21° C. Commercial food and tap water were available ad libitum. All animals were used only once in the behavioral experiments.
Another group of animals were implanted under ether anaesthesia with a permanent plastic cannula in the right lateral ventricle (foramen interventriculare, Konig and Klippel A 6360) with another cannula into the right jugular vein. These animals were sacrificed at the end of behavioral procedure and the brains were utilized for biochemical analysis. Data were taken from animals showing no abnormalities at the postmortem examination. All experiments were carried out according to the European Community Council Directive 86/609/ECC and efforts were made to minimize animal suffering and to reduce the number of animals used.
Ropinirole (ropinirole hydrochloride, SmithKline Beecham, Italy) and dihydroergocryptine (DHECP) α-dihydroergocryptine methanesulfonate, Monsanto, Italy) were dissolved in saline and injected subcutaneously (s.c.) at the dose of 0.5 and 1 mg/kg/day for 7 days. In the experiments with kainate-induced convulsions, […], and again at the same time of the intracerebroventricular (i.c.v) injection on kainic acid; Control animals received an injection of saline alone with the same procedure.
Kainic acid (Sigma, USA) was dissolved in saline and injected i.c.v. at the dose of 10 μg/2 μi.
Over a 30-min observation, the following items were recorded per each animal receiving an i.c.v. injection of kainic acid: latency in s to the first tonic-clonic seizure; total number of seizures, percent rate of mortality (checked 2 h after the administration of the convulsive agent).
Behavioral scoring of kainate-induced convulsions was started immediately after i.c.v. injection of the drug and proceeded for 30 min. Ropinirole, DHECP or saline were injected twice, 30 min prior and, again, at the same time of the i.c.v. administration of kainic acid.

[2] = system: animals with hypobaric hypoxia-induced amnesia; assay: Step-through passive avoidance, hypobaric hypoxia-induced amnesia; conditions: for Latency: hypobaric hypoxia, median latency to re-enter dark box, max 300 s
Method: as §1
(§2) Ropinirole (ropinirole hydrochloride, SmithKline Beecham, Italy) and dihydroergocryptine (DHECP) α-dihydroergocryptine methanesulfonate, Monsanto, Italy) were dissolved in saline and injected subcutaneously (s.c.) at the dose of 0.5 and 1 mg/kg/day for 7 days. In the experiments with kainate-induced convulsions, ropinirole or DHECP were injected intravenously (i.v.) 30 min prior, and again at the same time of the intracerebroventricular (i.c.v) injection on kainic acid; Control animals received an injection of saline alone with the same procedure.
Passive avoidance behaviour was studied in a step-through type of passive avoidance situation (Ader et al., Psycon Sci, 26, 125-128 (1972)). Briefly the rats were adapted to the apparatus consisting of a large dark compartment equipped with a grid floor and a mesh-covered elevated runway attached to the front centre of the dark chamber. Adaptation training was followed by a single trial in which the rats were placed on the elevated platform and allowed to enter the dark box. Three such trials were given on the next day with an intertrial interval of 5 min after the trial. The rats received a single 2-s unavoidable scrambled foot-shock (0.20 mA) immediately after entering the dark compartment. Retention of the response was tested 24 h after the learning trial. The rats were placed on the elevated runway and the latency to re-enter the shock compartment was recorded up to a maximum of 300 s.
(§3) In the first experiment, the effects of ropinirole or DHECP were studied on amnesia induced by hypobaric hypoxia in rats. After a 7-day pretreatment with ropinirole, DHECP or saline, a group of animals was subjected to acute hypobaric hypoxia by means of a hypobaric chamber (Chantiers et Ateliers de Bretagne, France) causing depression to 300 mmHg (Boismare et al., Gerentology, 24, 6-13 (1978)). After 3 min in the chamber, the animals were removed and admitted for behavioral testing. Intact control rats were also introduced into the chamber but not subjected to hypobaric hypoxia.

[3] = system: animals with hypobaric hypoxia-induced amnesia; assay: Shuttle-box active avoidance acquisition, hypobaric hypoxia-induced amnesia; conditions: for Learners / CARs: hypobaric hypoxia; for CARs: mean ± S.E.M.
Method: as §1, §2
Shuttle-box active avoidance acquisition was studied in a single session test as described in Bohus and De Wied, Endogenous Peptides and Learning and Memory Processes. Academic Press, New York, pp59-775, (1981). Briefly, the rats were trained to avoid the unconditioned stimulus (US) of a scrambled electrical foot-shock (0.20 mA) delivered through the grid floor. The conditioned stimulus (CS) was a buzzer presented for 3 s prior to the US. If no escape occurred within 20 s of CS/US presentation, the shock was terminated. A maximum of 30 conditioning trials were given with a variable intertrial interval averaging 60 s. The learning criterion was five consecutive conditioned avoidance responses (CARs). For those animals that reached the criterion in less than 30 trials, the remaining trials until 30 were considered as CARs. Indexes of avoidance behaviour were the total number of CARs and the percent number of learners per group.
as §3

[4] = system: animals with hypobaric hypoxia-induced amnesia; assay: Open field spontaneous motor activity, hypobaric hypoxia; conditions: vs intact controls and saline-treated hypoxic animals
Method: as §1, §2
Spontaneous motor activity was scored in a circular open field arena as described by Weijnen and Slangen, Pituitary, Adrenal and the Brain, pp221-235 (1982). Animals were put inside a circular lit-up arena, with the bottom divided into 27 areas of equal size.
as §3

[5] = kainate-induced seizures, summary of Table 3
[6] = hypobaric hypoxia-induced amnesia, summary of Table 1

For `CCCN(CCC)CCc1cccc2c1CC(=O)N2` [ROP, 4-[2-(di-n-propylamino)ethyl]-1,3-dihydro-2H-indolin-2-one hydrochloride], the “latency to the first tonic-clonic seizure (effect of treatment, in words)” value [1, 5] was “did not modify”, the “percent mortality rate (effect of treatment, in words)” value [1, 5] was “significant decrease” and the “total number of kainate-induced seizures (effect of treatment, in words)” value [1, 5] was “did not modify”. For the same molecule, the “Latency (s) to the first tonic-clonic seizure” value ([1]; 0.5 mg/kg injected s.c. twice (30 min prior and at kainic acid)) was 69.4 ± 8.9 s, the “Seizures (total number)” value ([1]; 0.5 mg/kg injected s.c. twice) was 7.1 ± 0.9 and the “Mortality (%)” value ([1]; 0.5 mg/kg injected s.c. twice) was 20^a %. The “Latency (s) to the first tonic-clonic seizure” value ([1]; 1 mg/kg injected s.c. twice (30 min prior and at kainic acid)) was 65.4 ± 6.9 s, the “Seizures (total number)” value ([1]; 1 mg/kg injected s.c. twice) was 6.9 ± 0.9 and the “Mortality (%)” value ([1]; 1 mg/kg injected s.c. twice) was 10^a %. The “latency to re-enter the dark box (effect of treatment, in words)” value [2, 6] was “increase”, the Latency ([2]; 0.5 mg/kg/day s.c. for 7 days) was 47^e,f and the Latency ([2]; 1 mg/kg/day s.c. for 7 days) was 65^f. The “number of CARs and percent number of learners in the shuttle-box (effect of treatment, in words)” value [3, 6] was “increase”, the Learners ([3]; 0.5 mg/kg/day s.c. for 7 days) was 60^d percent and the CARs ([3]; 0.5 mg/kg/day s.c. for 7 days) was 16.8 ± 1.3^b. The Learners ([3]; 1 mg/kg/day s.c. for 7 days) was 70^d percent, the CARs ([3]; 1 mg/kg/day s.c. for 7 days) was 17.2 ± 1.5^b and the “ambulation and rearing (effect of treatment, in words)” value [4] was “higher”.
